For data set [1], the system named is pregnant rats. Conditions: cited from earlier work.
The conditions of data set [2]: ex-vivo dually perfused human cotyledon; cited from earlier work.
The subject of data set [3] is pregnant rats. Conditions: gestational day 0 to 17, cited from earlier work.
Data set [4] in a line: Amniotic fluid drug concentration in mouse pregnancy model (HPLC-MSMS). The class given is in vivo, C57BL/6J mice. Conditions: pregnant mice; for Kp at 1 h / concentration at 1 h: female, C57BL/6J, mouse, oral; for Kp at 1 h: amniotic fluid / maternal plasma; for concentration at 1 h: amniotic fluid. An excerpt: All animal experiments were approved by the University Health Network Animal Use Committee (protocol #2575) and performed according to the policies and guidelines of the Canadian Council on Animal Care. C57BL/6J mice bred in-house (original breeders from Jackson Laboratory RRID:IMSR JAX:000664) were maintained under a 12-h light/dark cycle, with ad libitum access to food and water. Animals were acclimated to their surroundings for 1 week prior to experiment initiation. Males were isolated for 7 days prior to mating. Female mice (7–12 weeks of age) were mated with males at a ratio of 2:1. Presence of vaginal plug was denoted as gestational day 0.5 (GD0.5). Pregnancy was confirmed by weight gain of >1.5 g on GD9.5 and >3 g on GD13.5. […] The equivalent mouse mg/kg dose was calculated based on the human dose divided by an assumed average human weight of 60 kg. […] On GD15.5, mice underwent saphenous bleed 24 h after the GD14.5 dose administration (trough). Immediately after the saphenous bleed, mice were dosed with the appropriate drug regimen and sacrificed 1 h post-treatment (peak), at which time blood was collected by cardiac puncture and amniotic fluid was collected by dissecting the uterus, puncturing the amniotic sac, and draining the amniotic fluid into a sterile dish. Amniotic fluid was pooled for the entire litter. Samples from 2 dams per arm were analyzed for drug levels.
Briefly, 50 μL of plasma or amniotic fluid was spiked with internal standard (ritonavir-d6) followed by protein precipitation with acetonitrile and filtration. Filtrates were diluted 1:9 with ammonium acetate buffer (10 mM) and analyzed by the HPLC-MSMS system, consisting of a Shimadzu Nexera XR high-performance liquid chromatograph (Shimadzu, Columbia, MD, USA) coupled with a SCIEX API 4500 QqQ mass spectrometer (SCIEX, Concord, ON, Canada). Chromatographic separation by Mobile Phase A (10% methanol, 5% 50 mM ammonium acetate, 85% 0.25% acetic acid pH 3.6 ± 0.2) and Mobile Phase B (90% methanol, 5% 50 mM ammonium acetate, 5% 0.25% acetic acid pH 6.6 ± 0.2) was performed under linear gradient conditions (flow rate 0.7 mL/min) on a reverse-phase Zorbax XDB-C18 column (Agilent Technologies, Santa Clara, CA, USA) maintained at 40 °C. […] HPLC-MSMS data were acquired using Analyst (v 1.6.3, SCIEX, Concord, ON, Canada) and analyzed with MultiQuant software (v 3.0.3, SCIEX, Concord, ON, Canada). […] Positive controls spiked in-house and prepared by an external laboratory during a sample exchange program were included in all runs.

The next data set concerns pregnant rabbits. As to conditions: CAB orally 0, 30, 500, or 2000 mg/kg/day, gestational day 7 to 19; cited from earlier work.
[5] abbreviates: CAB 5 mg/kg (10×) oral gavage once daily GD11.5-GD15.5 with TDF 50 mg/kg + FTC 33.3 mg/kg, mean (SD), n=2.

Read-outs that look alike come from different tables or passages of the source.

Data on one molecule can be found in paper PMC9501129 (Pharmaceutics, 2022).

Regarding `C[C@H]1CO[C@@H]2Cn3cc(C(=O)NCc4ccc(F)cc4F)c(=O)c(O)c3C(=O)N12` [CAB, cabotegravir], the Reproductive toxicity findings result with pregnant rats [1] (CAB orally 1000 mg/kg/day, gestational day 6 to lactation day 21) was “delayed onset of parturition, increased number of stillbirths, and increased number of neonatal deaths at lactation day 4”. In addition, the “CAB exposure relative to the recommended human dose” value with pregnant rats [1] (rats, 1000 mg/kg/day) is on record as 28 times. Besides, the “Concentration in the fetal compartment” value in data set [2] is 48 ng/mL. Further, the “Concentration in the maternal compartment” value in data set [2] is 550 ng/mL. In addition, the Maternal-to-fetal ratio in data set [2] is recorded as 10%. For the same molecule, in data set [2], the Placental transfer entry is “low placental transfer”. Also, in the data set with pregnant rats [3] (CAB orally 0, 0.5, 5, or 1000 mg/kg/day), the “Fetal viability and fetal malformations” value is “no effects on fetal viability and no drug-related fetal malformations”. Moreover, the Fetal body weight entry with pregnant rats [3] (CAB orally 1000 mg/kg/day) was “minor decrease in fetal body weight”. Moreover, the Kp at 1 h in data set [4] (1× to 10× CAB, 1 h after dosing, read-out: Ratio of drug in the amniotic fluid to that in maternal plasma) is 0.034 to 0.055; in data set [4] (CAB 0.5 mg/kg (1×) oral gavage once daily GD11.5-GD15.5 with TDF 50 mg/kg + FTC 33.3 mg/kg, mean (SD), n=2, read-out: Amniotic: Maternal Plasma Ratio 1 h), 0.05; in data set [4] (CAB 1.5 mg/kg (3×) oral gavage once daily GD11.5-GD15.5 with TDF 50 mg/kg + FTC 33.3 mg/kg, mean (SD), n=2, read-out: Amniotic: Maternal Plasma Ratio 1 h), 0.055; in data set [4] (CAB 5 mg/kg (10×) oral gavage once daily GD11.5-GD15.5 with TDF 50 mg/kg + FTC 33.3 mg/kg, mean (SD), n=2, read-out: Amniotic: Maternal Plasma Ratio 1 h), 0.034. Besides, the concentration at 1 h in data set [4] (CAB 0.5 mg/kg (1×) oral gavage once daily GD11.5-GD15.5 with TDF 50 mg/kg + FTC 33.3 mg/kg, mean (SD), n=2) turned out to be 44.9 ng/mL; in data set [4] (CAB 1.5 mg/kg (3×) oral gavage once daily GD11.5-GD15.5 with TDF 50 mg/kg + FTC 33.3 mg/kg, mean (SD), n=2) it was 59.9 ng/mL; in data set [4] (setting [5]), 112 ng/mL. For the same molecule, the “Amniotic Fluid 1 h” value in data set [4] (setting [5]) is listed as 112.4 (33.6) ng/mL. In the data set on pregnant rabbits, the Fetal toxicities entry is “no drug-related fetal toxicities”.
